In patent US8877707B2, “Inhibitors of HCV NS5A” (Presidio Pharmaceuticals, Inc., priority 2010, dated 2014):
pEC50: −log10 of the molar value.

Test system: HCV genotype 1b replicon in Huh 7 cells
Test: HCV replicon assay (1b_Huh-Luc/Neo-ET cell line, luciferase readout)
Type: cell-based
Settings: Hepatitis C virus, Huh-7; HCV 1b replicon; read-out: Inhibition of HCV genotype 1b
Summary of the method: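 Huh 7 cells carrying a bicistronic genotype 1b luciferase replicon were treated with compound in triplicate the day after plating and incubated 72 h. Luciferase activity expressed as % of untreated control; EC50 from a four-parameter logistic fit, repeated several times.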

SMILES | pEC50
CC[C@H](C)[C@H](NC(=O)OC)C(=O)N1CCC[C@H]1c1ncc(-c2ccc3cc(-c4cc5[nH]c([C@@H]6CCCN6C(=O)[C@@H](NC(=O)OC)[C@@H](C)CC)nc5cc4F)ccc3c2)[nH]1 [compound 703] | > 9.00
COC(=O)N[C@H](C(=O)N1CCC[C@H]1c1ncc(-c2ccc3oc(-c4ccc(-c5cnc([C@@H]6CCCN6C(=O)[C@H](NC(=O)OC(C)(C)C)c6ccccc6)[nH]5)cc4)nc3c2)[nH]1)C(C)C [compound 535] | > 9.00
COC(=O)N[C@H](C(=O)N1CCC[C@H]1c1ncc(-c2ccc3cc(-c4ccc5nc([C@@H]6CCCN6C(=O)[C@@H](NC(=O)OC)C6CCOCC6)[nH]c5c4)nnc3c2)[nH]1)C1CCOCC1 [compound 531] | > 9.00
COC(=O)N[C@H](C(=O)N1CCC[C@H]1c1ncc(-c2ccc3cc(-c4cc5[nH]c([C@@H]6CCCN6C(=O)[C@@H](NC(=O)OC)[C@@H](C)OC)nc5cc4F)ccc3c2)[nH]1)[C@@H](C)OC [compound 701] | > 9.00
COC(=O)N[C@H](C(=O)N1CCC[C@H]1c1ncc(-c2ccc3cc(-c4cc5[nH]c([C@@H]6CCCN6C(=O)[C@@H](NC(=O)OC)C(C)C)nc5cc4F)ccc3c2)[nH]1)C(C)C [compound 700] | > 9.00
COC(=O)N[C@H](C(=O)N1CCC[C@H]1c1ncc(-c2ccc(-c3ccc4cc(-c5cnc([C@@H]6CCCN6C(=O)[C@@H](NC(=O)OC)[C@@H](C)OC)[nH]5)ccc4n3)cc2F)[nH]1)C(C)C [compound 475] | > 9.00
COC(=O)N[C@H](C(=O)N1CCC[C@H]1C(=O)N[C@@H](C)c1ccc(-c2ccc3cc(-c4cnc([C@@H]5CCCN5C(=O)[C@@H](NC(=O)OC)C(C)C)[nH]4)ccc3c2)cc1)C(C)C [compound 557] | > 9.00
COC(=O)N[C@H](C(=O)N1CCC[C@H]1c1nc2ccc(-c3ccc4cc(-c5cnc([C@@H]6CCCN6C(=O)[C@@H](NC(=O)OC)[C@@H](C)OC)[nH]5)ccc4c3)cc2[nH]1)C1CCCCC1 [compound 529] | > 9.00
COC(=O)N[C@H](C(=O)N1CCCC[C@H]1c1ncc(-c2ccc(-c3ccc4cc(-c5cnc([C@@H]6CCCN6C(=O)[C@@H](NC(=O)OC)C(C)C)[nH]5)ccc4n3)cc2)[nH]1)C(C)C [compound 455] | > 9.00
COC(=O)N[C@H](C(=O)N1CCC[C@H]1c1ncc(-c2ccc3cc(-c4ccc(-c5cnc([C@@H]6CCCN6C(=O)[C@H](NC(=O)OC)c6cccs6)[nH]5)cc4)ccc3c2)[nH]1)C(C)C [compound 497] | > 9.00
COC(=O)N[C@@H](C(=O)N1CCCC[C@H]1c1ncc(-c2ccc(-c3ccc4cc(-c5cnc([C@@H]6CCCN6C(=O)[C@H](NC(=O)OC)c6ccccc6)[nH]5)ccc4n3)cc2)[nH]1)c1ccccc1 [compound 457] | > 9.00
COC(=O)N[C@H](C(=O)N1CCC[C@H]1c1ncc(-c2ccc(-c3ccc4cc(-c5cnc([C@@H]6CCCN6C(=O)[C@@H](NC(=O)OC)[C@@H](C)OC)[nH]5)ccc4c3)cc2)[nH]1)C1CCCC1 [compound 504] | > 9.00
COC(=O)N[C@H](C(=O)N1CCC[C@H]1c1nc2c([nH]1)-c1ccc(-c3ccc4cc(-c5cnc([C@@H]6CCCN6C(=O)[C@H](NC(=O)OC)c6ccccc6)[nH]5)ccc4n3)cc1CCC2)C(C)C [compound 539] | > 9.00
COC(=O)N[C@H](C(=O)N1CCC[C@H]1C(=O)Nc1ccc(-c2ccc3cc(-c4cnc([C@@H]5CCCN5C(=O)[C@@H](NC(=O)OC)C5CCOCC5)[nH]4)ccc3n2)cc1)C1CCOCC1 [compound 542] | 8.00 to 9.00

Same assay, conditions: Hepatitis C virus; Table 1; genotype 1b replicon, Huh 7 cells, 72 h, luciferase; read-out: Inhibition of HCV genotype 1b

SMILES | pEC50
COC(=O)N[C@H](C(=O)N1CCC[C@H]1c1ncc(-c2ccc(-c3ccc4cc(-c5c[nH]c([C@@H]6CCCN6C(=O)[C@H](NC(=O)OC6CCOCC6)c6ccccc6)n5)ccc4n3)cc2)[nH]1)C1CCOCC1 [compound 92] | > 9.00
COC(=O)N[C@@H](C(=O)N1CCC[C@H]1c1nc(-c2ccc3nc(-c4ccc(-c5cnc([C@@H]6CCCN6C(=O)[C@H](NC(=O)OC)c6ccccc6)[nH]5)cc4)cc(OC)c3c2)c[nH]1)c1ccccc1 [compound 78] | > 9.00
COC(=O)N[C@H](C(=O)N1CCC[C@H]1c1ncc(-c2ccc3nc(-c4ccc5nc([C@@H]6CCCN6C(=O)[C@@H](NC(=O)OC)C6CCOCC6)[nH]c5c4)ccc3c2)[nH]1)C1CCOCC1 [compound 206] | 8.00 to 9.00
[2H]C([2H])([2H])C([2H])(C([2H])([2H])[2H])[C@@]([2H])(NC(=O)OC)C(=O)N1CCC[C@H]1c1ncc(-c2ccc3nc(-c4ccc(-c5cnc([C@@H]6CCCN6C(=O)[C@@H](NC(=O)OC)C6CCOCC6)[nH]5)cc4F)ccc3c2)[nH]1 [compound 158] | > 9.00
COC(=O)N[C@H](C(=O)N1CCC[C@H]1c1ncc(-c2ccc(-c3ccc4cc(-c5cnc([C@@H]6COCCN6C(=O)[C@H](NC(=O)OC)c6ccccc6)[nH]5)ccc4c3)cc2)[nH]1)C(C)C [compound 132] | > 9.00
COC(=O)N[C@H](C(=O)N1CCC[C@H]1c1nc(-c2ccc3cc(-c4ccc(-c5cnc([C@@H]6CCCN6C(=O)[C@@H](NC(=O)OC)C6CCOCC6)[nH]5)cc4F)ccc3c2)c[nH]1)C(C)C [compound 65] | > 9.00
CNC(=O)N[C@@H](C(=O)N1CCC[C@H]1c1ncc(-c2ccc(-c3cc4ccc(-c5cnc([C@@H]6CCCN6C(=O)[C@@H](NC(=O)OC)C6CCOCC6)[nH]5)cc4cn3)cc2)[nH]1)c1ccccc1 [compound 144] | > 9.00
COC(=O)N[C@@H](C(=O)N1CCC[C@H]1c1ncc(-c2ccc(-c3nc4ccc(-c5cnc([C@@H]6CCCN6C(=O)[C@H](NC(=O)OC)c6ccccc6)[nH]5)cc4s3)cc2)[nH]1)c1ccccc1 [compound 230] | > 9.00
COC(=O)N[C@H](C(=O)N1CCC[C@H]1c1nc(-c2cnc3cc(-c4ccc(-c5cnc([C@@H]6CCCN6C(=O)[C@H](NC(=O)OC6CCOCC6)c6ccccc6)[nH]5)cc4)ccc3c2)c[nH]1)C1CCOCC1 [compound 89] | > 9.00
COC(=O)N[C@@H](C(=O)N1CCC[C@H]1c1nc(-c2ccc3nc(-c4ccc(-c5cnc([C@@H]6CCCN6C(=O)[C@H](NC(=O)OC)c6ccccc6)[nH]5)cc4F)ccc3c2)c[nH]1)c1ccccc1 [compound 97] | > 9.00
CC[C@H](NC(=O)OC)C(=O)N1CCC[C@H]1c1ncc(-c2ccc(-c3ccc4cc(-c5cnc([C@@H]6CCCN6C(=O)[C@H](CC)NC(=O)OC)[nH]5)ccc4c3)cc2)[nH]1 [compound 173] | > 9.00
COC(=O)N[C@H](C(=O)N1CCC[C@H]1c1nc(-c2ccc3cc(-c4ccc(-c5cnc([C@@H]6CCCN6C(=O)[C@@H](NC(=O)OC)C6CCOCC6)[nH]5)cc4)ccc3c2)c[nH]1)C(C)C [compound 46] | > 9.00
COC(=O)N[C@H](C(=O)N1CCC[C@H]1c1ncc(-c2ccc(-c3nc4ccc(-c5cnc([C@@H]6CCCN6C(=O)[C@H](NC(=O)OC)c6ccccc6)[nH]5)cc4o3)cc2)[nH]1)C(C)C [compound 249] | > 9.00
COC(=O)N[C@H](C(=O)N1CCC[C@H]1c1nc(-c2ccc3nc(-c4ccc(-c5cnc([C@@H]6CCCN6C(=O)[C@@H](NC(=O)OC)C6CCOCC6)[nH]5)cc4)ccc3c2)c[nH]1)C(C)C [compound 42] | > 9.00
COC(=O)N[C@H](C(=O)N1CCC[C@H]1c1nc2ccc(-c3ccc4cc(-c5ccc6nc([C@@H]7CCCN7C(=O)[C@@H](NC(=O)OC)C(C)C)[nH]c6c5)ccc4c3)cc2[nH]1)C(C)C [compound 276] | > 9.00
COC(=O)N[C@H](C(=O)N1CCC[C@H]1c1ncc(-c2ccc3c(-c4ccc5[nH]c([C@@H]6CCCN6C(=O)[C@@H](NC(=O)OC)C(C)C)nc5c4)cccc3c2)[nH]1)C(C)C [compound 214] | 6.00 to 8.00
COC(=O)N[C@H](C(=O)N1CCC[C@H]1c1ncc(-c2ccc3cc(-c4ccc5nc([C@@H]6COCCN6C(=O)[C@@H](NC(=O)OC)C(C)C)[nH]c5c4)ccc3c2)[nH]1)C(C)C [compound 222] | > 9.00
COC(=O)N[C@H](C(=O)N1CCC[C@H]1c1ncc(-c2ccc3cc(-c4ccc5nc([C@@H]6CCCN6C(=O)[C@@H](NC(=O)OC)[C@@H](C)O)[nH]c5c4)ccc3c2)[nH]1)[C@@H](C)O [compound 175] | > 9.00
CCNC(=O)N[C@@H](C(=O)N1CCC[C@H]1c1ncc(-c2ccc3nc(-c4ccc(-c5cnc([C@@H]6CCCN6C(=O)[C@@H](NC(=O)OC)C(C)C)[nH]5)cc4)oc3c2)[nH]1)c1ccccc1 [compound 252] | > 9.00

Same assay, conditions: Hepatitis C virus; Table 2; genotype 1b replicon, Huh 7 cells, 72 h, luciferase; read-out: Inhibition of HCV genotype 1b

SMILES | pEC50
COC(=O)N[C@H](C(=O)N1CCC[C@H]1c1ncc(-c2ccc3cc(-c4ccc5nc([C@@H]6CCCN6C(=O)[C@@H](NC(=O)OC)C6CCCC6)[nH]c5c4)nnc3c2)[nH]1)C1CCCC1 [compound 393] | > 9.00
COC(=O)N[C@H](C(=O)N1CCC[C@H]1c1ncc(-c2ccc3cc(-c4ccc5nc([C@@H]6COCCN6C(=O)[C@@H](NC(=O)OC)[C@@H](C)O)[nH]c5c4)ccc3c2)[nH]1)[C@@H](C)O [compound 355] | > 9.00
COC(=O)N[C@H](C(=O)N1CCC[C@H]1c1ncc(-c2ccc3cc(-c4ccc5nc([C@@H]6CCCN6C(=O)[C@@H](NC(=O)OC)C6CCCCC6)[nH]c5c4)nnc3c2)[nH]1)C1CCCCC1 [compound 400] | > 9.00
CC[C@@H](C)[C@H](NC(=O)OC)C(=O)N1CCC[C@H]1c1ncc(-c2ccc3cc(-c4cc5[nH]c([C@@H]6CCCN6C(=O)[C@@H](NC(=O)OC)[C@H](C)CC)nc5cn4)ccc3c2)[nH]1 [compound 413] | > 9.00
COC(=O)N[C@H](C(=O)N1CCC[C@H]1c1ncc(-c2ccc3cc(-c4ccc(-c5cnc([C@@H]6COCCN6C(=O)[C@H](NC(=O)OC)c6ccccc6)[nH]5)cc4)ccc3c2)[nH]1)[C@@H](C)O [compound 324] | > 9.00
CC[C@@H](C)[C@H](NC(=O)OC)C(=O)N1CCC[C@H]1c1ncc(-c2ccc3cc(-c4ccc5nc([C@@H]6COCCN6C(=O)[C@@H](NC(=O)OC)[C@H](C)CC)[nH]c5c4)ccc3c2)[nH]1 [compound 352] | > 9.00
COC(=O)N[C@H](C(=O)N1CCC[C@H]1c1ncc(-c2ccc3cc(-c4cc5[nH]c([C@@H]6CCCN6C(=O)[C@@H](NC(=O)OC)C6CC6)nc5cn4)ccc3c2)[nH]1)C1CC1 [compound 414] | > 9.00
